# Assay results reported in US20070059299A1, “S-adenosyl methionine decarboxylase inhibition for the treatment of a herpes simplex virus infection” (Institut National de la Sante et de la Recherche Medicale …, priority 2002, published 2007).
# Where two headings read alike, the source gives them in different places.
# Tests used:
# [1] = test system: HSV-1 macroplaque strain (MP); format: cell-based; settings: for less syncytia formed than in control infected without MGBG: no pre-treatment, 24 h
# Method: HEp2 cells were grown as monolayers in Eagle's minimum essential medium (E-MEM) supplemented or not with 5% heat-inactivated foetal calf serum (FCS) and supplemented with 100 U/ml penicillin and 100 U/ml streptomycin. The cells were maintained at 37° C. under 5% CO2. The HSV-1 macroplaque strain (MP), obtained from B. Jacquemont (Lyon, France), was a gift of B. Roizman (Chicago, Ill., U.S.A.), and was used throughout this study. Viruses were grown in HEp2 cells.
# HEp2 cells were grown in 6-well plates (˜10^6 cells/well) and infected just before confluence with a multiplicity of infection (m.o.i.) of 0.5 plaque-forming units (PFU) per cell in E-MEM in absence of FCS, except for some experiments. After adsorption of the virus for 1 h at 33° C. under 5% CO2, the medium containing the virus suspension was removed and the cells were washed with E-MEM, then incubated in E-MEM without FCS at 37° C. for different periods of times until harvest. Times post-infection (p.i.) were calculated from the time of addition of the virus suspension. HEp2 cells were exposed to MGBG treatment for different times. When cells were pre-treated with MGBG prior infection, MGBG was added to cell medium 6 h or 24 h prior infection until harvest. In non pre-treated cells, MGBG was added simultaneously with virus suspension, or 2 h, 4 h or 6 h latter. When cells were treated for more than 24 h, medium was replaced every 24 h with fresh medium containing the same concentration of MGBG.
# Accordingly, the effect of inactivation of enzymes involved in polyamine biosynthesis upon HSV-1 infection inhibition was assessed. The HSV-1 MP strain was used throughout this study for its ability to induce the formation of large syncytia from infected cells. Therefore, it was possible to easily and quickly investigate the inhibition of viral replication at the level of syncytia formation.
# To investigate the effect of the concentration of MGBG on viral infection, HEp2 cells were infected with 0.5 PFU of HSV-1 per cell in FCS free medium in which 10 μM to 300 μM MGBG was added from the adsorption step of the virus until the end of the experiment. After 24 h of infection, the formation of syncytia was observed, and the number of syncytia was estimated by counting using the optical microscope.
# HEp2 cell were pre-treated with MGBG by incubation in FCS free medium containing 10 to 300 μM MGBG 6h to 24 h before infection. Then cells were infected as described above and MGBG was maintained in the medium until the end of the experiment.
# [2] = test system: acyclovir-resistant reference strain DM21; experiment: Antiviral susceptibility testing by ELISA on HEp-2 cells, strain DM21; format: cell-based, HSV 1; settings: HEp-2 cells, ELISA; median of at least three assays; drugs diluted in μM; read-out: Susceptibility of strain DM21 (concentration causing 50% inhibition of viral replication, IC50), median
# Method: Three HSV 1 reference strains were tested : SC16 (acyclovir-susceptible reference strain; (Hill et al., 1975)), DM21 (acyclovir-resistant reference strain derived from SC16; (Efstathiou et al., 1989)) and TP 2.5 (foscarnet-resistant reference strain derived from SC16; (Larder and Darby, 1985)). Antiviral assays were performed in duplicate on HEp-2 cells seeded in 96 wells microplates. Dilutions of virus and drugs were prepared in E-MEM without FCS. Cells were first treated for 24 hours with MGBG using a series of 6 twofold serial dilutions from 12.5 to 400 μM. Infection was then achieved with 5 tenfold dilutions of cell-associated virus (10^−1 to 10^−5). Each dilution was incubated with a series of 6 concentrations of each antiviral drug (from 12.5 to 400 μM in twofold dilutions for MGBG, from 0.16 to 500 μM in fivefold dilutions for acyclovir and from 31 to 1000 μM in twofold dilutions for foscarnet). […] After incubation at 36° C. with 5% CO2 for 24 hours post-infection, medium was replaced with freshly prepared dilutions of MGBG. Viral multiplication was checked 24 hours afterwards by an ELISA (Morfin et al., 1999), using a rabbit monoclonal anti-HSV 1 antibody (BO 114, Dako) and a protein A peroxidase-conjugated (BioRad). The substrate, 2,2′-azino-di(3-ethyl-benzthiazoline) sulfonic acid (ABTS) diluted in ABTS buffer (Boehringer, Mannheim), was added to each well. After 30 min at room temperature, the plates were briefly agitated and optical densities were read at 405 nm with a multichannel spectrophotomoter (Titertek-Multiskan). Optical density values were used with the Biolise program (Life Sciences International) to calculate the concentration of the drug causing a 50% inhibition of viral replication (IC50) by logistic regression analysis.
# The capacity of MGBG to preclude infection of three HSV-1 acyclovir and/or foscarnet resistant strains was tested. The reference strains used in this study were the SC16 acyclovir-susceptible reference strain, the DM21 acyclovir-resistant reference strain derived from SC16 and the TP 2.5 foscarnet-resistant reference strain derived from SC16 (Efstathiou et al., 1989; Hill et al., 1975; Larder and Darby, 1985). In each experiment, dose response curves were constructed for […], for acyclovir, and for MGBG. The ED values were determined.
structure (smiles),measurement,setting,value
"CC(C=NNC(=N)N)=NNC(=N)N [MGBG, methylglyoxal bis(guanylhydrazone)]",size and number of syncytia,"[1]; 10 μM MGBG added simultaneously with virus, 0.5 PFU/cell, FCS free, 24 h of infection",the size but not the number of syncytia was reduced
same,less syncytia formed than in control infected without MGBG,"[1]; 50 μM MGBG added with virus, 0.5 PFU/cell, FCS free",50%
same,viral replication (syncytia),[1]; 100 μM MGBG added 2 h after the beginning of infection,totally inhibited
same,viral replication (syncytia),[1]; 100 μM MGBG added 4 h or 6 h after the adsorption step,partially inhibited
same,less syncytia formed than in control infected without MGBG,"[1]; 100 μM MGBG added with virus, 0.5 PFU/cell, FCS free",95%
same,viral infection compared to cells infected without MGBG,[1]; 100 μM MGBG alone added simultaneously with viral suspension,strongly reduced
same,less syncytia formed than in control infected without MGBG,"[1]; 200 μM MGBG added with virus, 0.5 PFU/cell, FCS free",about 99%
same,inhibition of viral infection in cells grown with 5% FCS compared with FCS free medium,"[1]; 5% FCS, different concentrations of MGBG",significantly less efficient
same,antiviral effect of MGBG and ACV in combination versus alone (syncytia formation),"[1]; HEp2 cells, 0.5 PFU of HSV-1 per cell",potentiates the antiviral effect of ACV
same,HSV-1 infection of HEp2 cells in the presence of MGBG,[1]; MGBG at micromolar concentration,inhibited
same,inhibition of viral infection,[1]; cells pre-treated for 6 and 24 h with at least 25 μM MGBG,more than 80%
same,syncytia formed compared to cells infected in the absence of MGBG,"[1]; cells pre-treated for 6 h with 10 μM MGBG, FCS free",70%
same,syncytia formed compared to cells infected in the absence of MGBG,"[1]; cells pre-treated for 24 h with 10 μM MGBG, FCS free",36%
same,IC50,[2],75 µM
